The text below walks through data of article PMC12257356, “Structure-guided engineering of a polyphosphate kinase 2 class III from an Erysipelotrichaceae bacterium to produce base-modified purine nucleotides” (RSC Chemical Biology, 2025).

Each structure is given as a SMILES string.

Experiment [1] has as its target T1, EbPPK2 (polyphosphate kinase 2 class III from an Erysipelotrichaceae bacterium) (Erysipelotrichaceae bacterium, UniProt P0DY74).
T1 construct: gene DHS57_05705; purified; 146 kDa homotetramer
T1 sequence (P0DY74 1-298): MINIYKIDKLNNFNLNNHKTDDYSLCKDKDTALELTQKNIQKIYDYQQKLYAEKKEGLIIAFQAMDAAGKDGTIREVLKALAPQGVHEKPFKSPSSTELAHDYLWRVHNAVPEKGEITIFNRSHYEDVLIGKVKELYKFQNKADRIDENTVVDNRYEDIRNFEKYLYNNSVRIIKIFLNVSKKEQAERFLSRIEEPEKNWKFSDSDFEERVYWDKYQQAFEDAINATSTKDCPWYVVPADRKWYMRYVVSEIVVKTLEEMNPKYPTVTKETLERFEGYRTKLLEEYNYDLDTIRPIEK
Description: HPLC conversion to NDP/NTP. In kind it is biochemical. Particulars: 1 mM NMP, 1 μM enzyme, 6.1 g/L sodium polyphosphate, 20 mM MgCl2, 20 mM Tris pH 8, 30 °C, 10 min.

In experiment [2] the target is T1, EbPPK2 (polyphosphate kinase 2 class III from an Erysipelotrichaceae bacterium). Description: X-ray crystal structure. Particulars: 1.7 Å; ternary complex with polyP and Mg2+; nucleotide-binding pocket of the active site.

Take `Nc1ncnc2c1ncn2[C@@H]1O[C@H](COP(=O)(O)O)[C@@H](O)[C@H]1O` [1a, AMP]: the “HPLC conversion to NDP/NTP” value in experiment [1] is recorded as “Starting from AMP (1a), the reaction approached a distribution of AMP”. `Nc1nc2c(ncn2[C@@H]2O[C@H](COP(=O)(O)O)[C@@H](O)[C@H]2O)c(=O)[nH]1` [5a, GMP]: in experiment [1], the “HPLC conversion to NDP/NTP” value was “GMP and GMP-like analogues were phosphorylated more slowly by EbPPK”. As for `Nc1ncnc2c1ncn2[C@@H]1O[C@H](COP(=O)(O)OP(=O)(O)CP(=O)(O)O)[C@@H](O)[C@H]1O` [adenosine-5′-[(β,γ)-methyleno]triphosphate], the X-ray crystal structure result in experiment [2] was “EbPPK2 in complex with the non-hydrolysable ATP analogue adenosine-5′-[(β,γ)-methyleno]triphosphate (ACP) and polyP (PDB: 9IGQ)”.
